Measurements from patent US20250354970A1, “SYSTEMS, METHODS, AND APPARATUSES FOR CHARACTERIZING RELEASE PROFILES FOR LONG-ACTING INJECTABLE MEDICATIONS” (Gilead Sciences, Inc., priority 2024, published 2025).

Test: Unit input response, intravenous bolus plasma concentration
Assay type: in vivo
Conditions: human, read-out: Plasma Concentration of API A
From the text: In predicting plasma concentration time profiles, we used two steps. First, we time scaled in vitro release profiles to use as our reference. Second, we obtained convolution of time-scaled in vitro release profile with unit input response (UIR) we obtained using intravenous bolus dose profile in a physiologically based pharmacokinetic model (PBPK).
FIG. 18 illustrates use of convolution of time-scaled in vitro release profile data (panel A, Table 4) with unit input response (UIR) obtained using an intravenous bolus dose (panel B, Table 5) to generate predictive plasma concentration-time profiles (panel C, Table 6). Panel A includes time-scaled mean in vitro release profiles of various solution-based subcutaneous long acting injectables of API. Panel C includes observed versus predicted mean plasma concentration-time profiles in humans for various solution-based subcutaneous long acting injectables of API A.

- concentration at 0 days (0.00 days): 0 ng/mL
- concentration at 0.04 days (0.04 days): 162 ng/mL
- concentration at 0.08 days (0.08 days): 27.7 ng/mL
- concentration at 0.17 days (0.17 days): 14 ng/mL
- concentration at 0.25 days (0.25 days): 7.73 ng/mL
- concentration at 0.33 days (0.33 days): 5.71 ng/mL
- concentration at 0.5 days (0.50 days): 4.68 ng/mL
- concentration at 1 days (1.00 days): 4.33 ng/mL
- concentration at 2 days (2.00 days): 4.37 ng/mL
- concentration at 3 days (3.00 days): 4.29 ng/mL
- concentration at 5 days (5.00 days): 3.49 ng/mL
- concentration at 7 days (7.00 days): 3.45 ng/mL
- concentration at 9 days (9.00 days): 2.84 ng/mL
- concentration at 11 days (11.00 days): 2.61 ng/mL
- concentration at 14 days (14.00 days): 2.33 ng/mL
- concentration at 20.92 days (20.92 days): 1.71 ng/mL
- concentration at 27.92 days (27.92 days): 1.1 ng/mL
- concentration at 34.96 days (34.96 days): 0.71 ng/mL
- concentration at 41.96 days (41.96 days): 0.43 ng/mL
- concentration at 55.96 days (55.96 days): 0.25 ng/mL
Compound: CC(C)(C#Cc1ccc(-c2ccc(Cl)c3c(NS(C)(=O)=O)nn(CC(F)(F)F)c23)c([C@H](Cc2cc(F)cc(F)c2)NC(=O)Cn2nc(C(F)(F)F)c3c2C(F)(F)[C@@H]2C[C@H]32)n1)S(C)(=O)=O [API A, Lenacapavir]
